Experimental data from ChEMBL document CHEMBL1201862, “PubChem BioAssay data set” (2004).
Calls of active or inactive are those of the source.

Legend:
[1] = biological target: Intestinal-type alkaline phosphatase (Mus musculus, UniProt P24822); experiment: PubChem AID 488785; format: functional
[2] = biological target: T1, Alkaline phosphatase, tissue-nonspecific isozyme (Homo sapiens, UniProt P05186); experiment: TNAP enzyme inhibition by screening hits, dose response, selectivity assay for mouse IAP inhibitor project, biochemical, human TNAP, uHTS hits (AID 488906); format: functional
T1 sequence (P05186 whole entry): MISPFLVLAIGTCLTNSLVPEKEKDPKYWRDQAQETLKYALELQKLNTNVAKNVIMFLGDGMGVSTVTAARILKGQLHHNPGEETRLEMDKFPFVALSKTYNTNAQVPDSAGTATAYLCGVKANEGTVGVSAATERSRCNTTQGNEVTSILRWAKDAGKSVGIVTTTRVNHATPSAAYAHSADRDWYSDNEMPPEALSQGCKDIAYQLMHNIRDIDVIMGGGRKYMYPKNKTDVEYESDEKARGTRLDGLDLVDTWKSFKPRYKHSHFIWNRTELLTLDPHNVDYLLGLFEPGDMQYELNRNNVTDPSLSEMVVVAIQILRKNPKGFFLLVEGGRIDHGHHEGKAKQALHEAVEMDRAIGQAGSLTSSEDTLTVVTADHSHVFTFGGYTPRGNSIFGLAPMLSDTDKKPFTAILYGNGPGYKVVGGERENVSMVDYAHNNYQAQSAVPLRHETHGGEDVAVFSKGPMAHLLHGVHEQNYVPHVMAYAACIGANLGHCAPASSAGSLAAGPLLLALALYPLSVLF

[3] = biological target: T2, Intestinal-type alkaline phosphatase (Homo sapiens, UniProt P09923); experiment: inhibition of human intestinal alkaline phosphatase – biochemical, dose response (AID 488876); format: functional
[4] = biological target: T3, Histone-lysine N-methyltransferase NSD2 (Homo sapiens, UniProt O96028); format: biochemical
T3 sequence (O96028 whole entry): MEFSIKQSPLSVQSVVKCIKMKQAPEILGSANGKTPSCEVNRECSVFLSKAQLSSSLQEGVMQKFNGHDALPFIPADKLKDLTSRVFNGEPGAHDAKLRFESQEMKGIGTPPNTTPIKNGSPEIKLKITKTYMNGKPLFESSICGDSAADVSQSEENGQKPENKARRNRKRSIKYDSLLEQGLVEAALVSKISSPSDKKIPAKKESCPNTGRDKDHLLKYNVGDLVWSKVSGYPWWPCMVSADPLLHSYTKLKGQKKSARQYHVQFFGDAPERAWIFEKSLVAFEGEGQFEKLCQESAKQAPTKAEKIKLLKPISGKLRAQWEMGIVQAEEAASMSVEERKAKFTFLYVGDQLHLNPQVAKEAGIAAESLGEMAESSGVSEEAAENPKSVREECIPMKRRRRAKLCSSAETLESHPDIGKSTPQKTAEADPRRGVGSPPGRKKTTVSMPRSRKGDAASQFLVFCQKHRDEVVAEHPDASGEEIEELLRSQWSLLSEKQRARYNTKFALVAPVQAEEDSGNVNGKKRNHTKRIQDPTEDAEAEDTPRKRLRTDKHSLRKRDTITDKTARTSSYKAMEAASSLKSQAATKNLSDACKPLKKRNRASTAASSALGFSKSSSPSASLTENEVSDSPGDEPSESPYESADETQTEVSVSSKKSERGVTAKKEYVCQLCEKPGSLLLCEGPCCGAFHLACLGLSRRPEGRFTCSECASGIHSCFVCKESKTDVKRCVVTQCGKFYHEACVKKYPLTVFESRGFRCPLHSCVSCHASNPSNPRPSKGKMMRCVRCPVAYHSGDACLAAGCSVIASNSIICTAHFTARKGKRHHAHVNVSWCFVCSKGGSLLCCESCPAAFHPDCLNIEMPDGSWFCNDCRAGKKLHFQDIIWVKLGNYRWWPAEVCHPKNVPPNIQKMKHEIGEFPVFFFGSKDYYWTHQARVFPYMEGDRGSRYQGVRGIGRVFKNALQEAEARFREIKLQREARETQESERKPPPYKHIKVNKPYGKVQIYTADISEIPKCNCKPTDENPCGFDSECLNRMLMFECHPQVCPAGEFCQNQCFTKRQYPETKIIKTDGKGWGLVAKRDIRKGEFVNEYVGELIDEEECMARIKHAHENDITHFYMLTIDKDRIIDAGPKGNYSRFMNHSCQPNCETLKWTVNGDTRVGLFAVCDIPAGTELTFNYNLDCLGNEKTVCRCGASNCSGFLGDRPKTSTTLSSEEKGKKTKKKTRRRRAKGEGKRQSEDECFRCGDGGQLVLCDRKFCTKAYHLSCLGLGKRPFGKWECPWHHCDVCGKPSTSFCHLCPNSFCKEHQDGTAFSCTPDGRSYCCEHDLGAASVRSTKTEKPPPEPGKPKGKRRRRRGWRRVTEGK

Exodeoxyribonuclease V = Exodeoxyribonuclease V (Escherichia coli (strain K12), UniProt P04993+P07648+P08394); experiment: RecBCD inhibition via phage-restricted bacterial growth – absorbance, V66 E. coli, mutant T4 phage, counter-screen for AddAB inhibitor project, dose response (AID 492957); format: functional, cell-based, Escherichia coli str. K-12 substr. MG1655
[5] = Counterscreen for AddAB inhibitors: absorbance-based bacterial cell-based high throughput dose response assay for inhibitors of bacterial viability. [Related pubchem assays (depositor defined):AID435030, AID449728, AID449731, AID488942, AID488955, AID488956]; format: functional
Tumor necrosis factor = Tumor necrosis factor (Homo sapiens, UniProt P01375); experiment: analog potency on TNFa NF-kB signaling – cell-based, revised, SAR follow-up (AID 2337); format: functional
[6] = biological target: Nucleotide-binding oligomerization domain-containing protein 1 (Homo sapiens, UniProt Q9Y239); experiment: blockers of NOD1 pathway activity – revised, SAR follow-up (AID 2333); format: functional
HEK293 [7] = experiment: cells; conditions: Homo sapiens
[8] = NIH-3T3 fibroblast cytotoxicity, dose response, cytotoxicity control, cell-based, fluorescence, Alamar Blue, secondary assay (AID 2327); format: functional;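 further: NIH-3T3 mouse fibroblasts cultured with fluconazole at 8 µg/mL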
[9] = luciferase reporter signal suppression in cells – H4 neuroglioma cells, luminescence, dose response (AID 1990); format: functional, cell-based
HEK293 [10] = experiment: inhibition of NOD1-driven NF-kB reporter – cell-based, luminescence, uHTS, primary screen (AID 1578); format: functional; conditions: Homo sapiens
[11] = system: Streptococcus sp. 'group A'; experiment: Streptococcus pyogenes SK(-)GAS viability under kanamycin – luminescence, BacTiterGlo, confirmation, counter-screen for streptokinase expression inhibitor project, dose response (AID 1900); format: functional, organism-based
BJ [12] = experiment: BJ-TERT fibroblast viability loss – cell-based, RAS-independent, luminescence, dose response (AID 1933); format: functional; conditions: Homo sapiens
HEK293 [13] = experiment: cells; format: functional, cell-based; conditions: Homo sapiens
cells [14] = format: functional, cell-based
[15] = Luminescence Cell-Based Dose Response HTS to Identify Inhibitors of 5'UTR Stem-Loop Driven Prion Protein mRNA Translation in H4 Neuroglioblastoma Cells. [Related pubchem assays: 1827 (Project Summary), 1813 (Primary HTS)]; format: functional
[16] = biological target: T4, Heat shock factor protein 1 (Mus musculus, UniProt P38532); experiment: decrease of HSF1-responsive luciferase luminescence – cell-based, NIH3T3, dose retest, confirmation (AID 2382); format: functional;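 further: NIH3T3 fibroblasts with HSF1-driven luciferase reporter stressed by proteasome inhibitor MG132; luminescence from HSF1-driven luciferase expression after 8 hours of MG132 stress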
T4 sequence (P38532 whole entry): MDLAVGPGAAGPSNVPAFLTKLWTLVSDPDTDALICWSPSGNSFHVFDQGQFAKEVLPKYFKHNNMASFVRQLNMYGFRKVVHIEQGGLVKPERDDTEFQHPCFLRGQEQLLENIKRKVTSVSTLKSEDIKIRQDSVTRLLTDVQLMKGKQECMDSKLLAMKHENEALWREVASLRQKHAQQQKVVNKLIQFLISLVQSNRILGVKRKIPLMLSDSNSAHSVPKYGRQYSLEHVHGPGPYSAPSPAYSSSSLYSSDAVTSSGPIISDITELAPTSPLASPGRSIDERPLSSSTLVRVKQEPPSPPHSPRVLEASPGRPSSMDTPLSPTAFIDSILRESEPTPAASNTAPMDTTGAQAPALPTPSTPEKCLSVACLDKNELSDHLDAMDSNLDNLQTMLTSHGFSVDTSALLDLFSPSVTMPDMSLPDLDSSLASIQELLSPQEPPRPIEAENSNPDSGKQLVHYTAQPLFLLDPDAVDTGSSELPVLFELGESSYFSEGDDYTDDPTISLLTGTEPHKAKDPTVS

[17] = alpha-synuclein stem-loop luciferase translation blockers – H4 neuroglioma cells, luminescence, confirmation (AID 1988); format: functional, cell-based
Streptokinase A = biological target: T5, Streptokinase A (Streptococcus pyogenes serotype M1, UniProt P10520); experiment: viability-normalized secreted streptokinase activity reduction – plasminogen activation absorbance, OD405, dose response (AID 1914); format: functional, Streptococcus pyogenes M1 GAS;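 further: secreted streptokinase activity via plasminogen activation per viability signal from cell pellet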
T5 sequence (P10520 whole entry): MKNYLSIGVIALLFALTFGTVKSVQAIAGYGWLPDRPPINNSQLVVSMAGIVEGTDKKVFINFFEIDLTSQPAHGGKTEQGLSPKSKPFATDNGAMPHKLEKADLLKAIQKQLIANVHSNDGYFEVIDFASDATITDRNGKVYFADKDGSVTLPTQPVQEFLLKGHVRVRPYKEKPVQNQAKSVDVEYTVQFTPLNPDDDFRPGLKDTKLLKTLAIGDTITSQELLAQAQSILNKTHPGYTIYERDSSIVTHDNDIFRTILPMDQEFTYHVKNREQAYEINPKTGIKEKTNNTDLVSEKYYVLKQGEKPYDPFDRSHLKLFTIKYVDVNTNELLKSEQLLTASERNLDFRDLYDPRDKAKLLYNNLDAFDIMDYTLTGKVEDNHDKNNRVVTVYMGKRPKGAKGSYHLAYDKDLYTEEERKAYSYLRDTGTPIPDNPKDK

BJ [18] = experiment: cells; format: functional, cell-based; conditions: Homo sapiens
[19] = fluconazole-exposed Candida albicans growth modulators – fluorescence, retest, confirmation (AID 2467); format: functional, cell-based
HEK293 [20] = experiment: cells; format: functional, cell-based; conditions: Homo sapiens; remark: listed apart in the source
[21] = biological target: Nucleotide-binding oligomerization domain-containing protein 2 (Homo sapiens, UniProt Q9HC29); experiment: inhibition of NOD2-driven NF-kB reporter – cell-based, luminescence, uHTS, HEK293 (AID 1566); format: functional
HEK293 [22] = experiment: NOD2 signaling inhibitors in MDP-stimulated cells, cell-based, uHTS, luminescence (AID 2001); format: functional; conditions: Homo sapiens
[23] = Luminescence-based dose response cell-based high throughput screening assay for cytotoxic compounds using the IEC-6 intestinal epithelial cell line. [Related pubchem assays: 1858 (Summary AID.), 1825 (Counterscreen.), 1907 (Confirmation screen.)]; format: functional
cells [24] = format: functional, cell-based; remark: listed apart in the source
BJ [25] = experiment: BJ-TERT-LT-ST fibroblast viability loss – cell-based, RAS-independent, luminescence, dose response (AID 1935); format: functional; conditions: Homo sapiens;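 further: BJ fibroblasts immortalized with TERT plus LT and ST oncogenes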
[26] = DRD fibroblast viability loss – cell-based, non-viral oncogenic, luminescence, dose response (AID 1934); format: functional; conditions: Homo sapiens
Streptococcus = experiment: GAS UMAA2166 growth inhibition – luminescence, BacTiterGlo, counter-screen for streptokinase expression inhibitor project, dose response (AID 1915); format: functional, organism-based;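 further: potency for reduction of bacterial viability or growth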
[27] = biological target: Heat shock protein HSP 90-alpha (Homo sapiens, UniProt P07900); format: functional, organism-based
BJ [28] = experiment: growth inhibition of engineered Ras-driven BJ cells – cell-based, alamar blue fluorescence, cherrypicked samples, dose response (AID 2631); format: functional; conditions: Homo sapiens;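 further: confirmatory dose-response assay in RAS-dependent BJ fibroblasts engineered with TERT, LT and ST, with cytotoxicity read by fluorescence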
INS1 = experiment: INS-1E survival protection against cytokine death – cell-based, luminescence, retest, dose response (AID 449756); format: functional; conditions: Rattus norvegicus;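 further: cell death triggered by IL-1 beta plus TNF-alpha plus IFN-gamma mixture; protective hits raise ATP signal compared with cytokine alone wells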
[29] = biological target: T2, Intestinal-type alkaline phosphatase; experiment: Dose Response confirmation of uHTS hits from a small molecule inhibitors of human intestinal alkaline phosphatase via a luminescent assay. [Related pubchem assays (depositor defined):AID2544, AID2574]; format: functional

T2 sequence (P09923 whole entry): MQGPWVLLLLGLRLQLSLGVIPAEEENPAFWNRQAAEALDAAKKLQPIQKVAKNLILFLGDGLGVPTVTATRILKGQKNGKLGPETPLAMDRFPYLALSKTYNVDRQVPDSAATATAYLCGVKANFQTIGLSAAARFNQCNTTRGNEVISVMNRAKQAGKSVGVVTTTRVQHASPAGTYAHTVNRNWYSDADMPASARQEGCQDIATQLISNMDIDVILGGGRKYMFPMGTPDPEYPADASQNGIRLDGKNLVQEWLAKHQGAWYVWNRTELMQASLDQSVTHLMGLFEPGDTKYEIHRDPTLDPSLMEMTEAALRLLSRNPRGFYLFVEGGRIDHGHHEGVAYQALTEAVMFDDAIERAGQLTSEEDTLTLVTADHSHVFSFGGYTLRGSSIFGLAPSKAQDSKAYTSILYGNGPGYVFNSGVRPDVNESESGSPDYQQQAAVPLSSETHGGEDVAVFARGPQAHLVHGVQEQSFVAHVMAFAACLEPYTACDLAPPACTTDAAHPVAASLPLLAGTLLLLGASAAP
Intestinal-type alkaline phosphatase (Mus musculus, UniProt P24822), sequence (P24822 whole entry): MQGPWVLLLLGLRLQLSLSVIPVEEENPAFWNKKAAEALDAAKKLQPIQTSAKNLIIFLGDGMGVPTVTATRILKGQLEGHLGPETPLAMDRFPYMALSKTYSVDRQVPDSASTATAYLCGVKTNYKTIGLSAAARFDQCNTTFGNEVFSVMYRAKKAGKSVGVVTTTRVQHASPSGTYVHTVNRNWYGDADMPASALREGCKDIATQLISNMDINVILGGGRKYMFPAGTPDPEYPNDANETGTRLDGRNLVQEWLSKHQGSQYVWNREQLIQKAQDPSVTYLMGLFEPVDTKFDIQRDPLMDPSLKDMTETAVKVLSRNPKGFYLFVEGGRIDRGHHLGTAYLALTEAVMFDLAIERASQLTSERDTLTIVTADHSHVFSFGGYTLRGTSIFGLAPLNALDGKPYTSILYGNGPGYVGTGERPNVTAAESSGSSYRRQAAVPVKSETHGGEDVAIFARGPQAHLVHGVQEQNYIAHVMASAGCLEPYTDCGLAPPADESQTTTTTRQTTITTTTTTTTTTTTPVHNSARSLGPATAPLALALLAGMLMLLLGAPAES
Exodeoxyribonuclease V, sequence (P04993 whole entry): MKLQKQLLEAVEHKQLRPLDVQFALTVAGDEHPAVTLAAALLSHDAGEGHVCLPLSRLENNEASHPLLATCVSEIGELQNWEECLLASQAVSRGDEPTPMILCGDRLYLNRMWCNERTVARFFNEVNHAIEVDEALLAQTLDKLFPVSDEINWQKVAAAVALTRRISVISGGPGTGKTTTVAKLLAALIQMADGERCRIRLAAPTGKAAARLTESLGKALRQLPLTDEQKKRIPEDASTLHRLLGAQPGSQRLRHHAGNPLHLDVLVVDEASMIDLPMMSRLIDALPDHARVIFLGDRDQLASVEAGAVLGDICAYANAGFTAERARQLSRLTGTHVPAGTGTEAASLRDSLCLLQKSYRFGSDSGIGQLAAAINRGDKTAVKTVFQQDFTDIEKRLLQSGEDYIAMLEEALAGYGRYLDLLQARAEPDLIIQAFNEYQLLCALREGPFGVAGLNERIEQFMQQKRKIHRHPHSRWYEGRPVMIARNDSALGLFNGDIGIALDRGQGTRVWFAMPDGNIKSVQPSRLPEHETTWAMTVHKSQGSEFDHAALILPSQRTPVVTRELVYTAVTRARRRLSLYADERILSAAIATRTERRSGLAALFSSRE
Exodeoxyribonuclease V, sequence (P07648 whole entry): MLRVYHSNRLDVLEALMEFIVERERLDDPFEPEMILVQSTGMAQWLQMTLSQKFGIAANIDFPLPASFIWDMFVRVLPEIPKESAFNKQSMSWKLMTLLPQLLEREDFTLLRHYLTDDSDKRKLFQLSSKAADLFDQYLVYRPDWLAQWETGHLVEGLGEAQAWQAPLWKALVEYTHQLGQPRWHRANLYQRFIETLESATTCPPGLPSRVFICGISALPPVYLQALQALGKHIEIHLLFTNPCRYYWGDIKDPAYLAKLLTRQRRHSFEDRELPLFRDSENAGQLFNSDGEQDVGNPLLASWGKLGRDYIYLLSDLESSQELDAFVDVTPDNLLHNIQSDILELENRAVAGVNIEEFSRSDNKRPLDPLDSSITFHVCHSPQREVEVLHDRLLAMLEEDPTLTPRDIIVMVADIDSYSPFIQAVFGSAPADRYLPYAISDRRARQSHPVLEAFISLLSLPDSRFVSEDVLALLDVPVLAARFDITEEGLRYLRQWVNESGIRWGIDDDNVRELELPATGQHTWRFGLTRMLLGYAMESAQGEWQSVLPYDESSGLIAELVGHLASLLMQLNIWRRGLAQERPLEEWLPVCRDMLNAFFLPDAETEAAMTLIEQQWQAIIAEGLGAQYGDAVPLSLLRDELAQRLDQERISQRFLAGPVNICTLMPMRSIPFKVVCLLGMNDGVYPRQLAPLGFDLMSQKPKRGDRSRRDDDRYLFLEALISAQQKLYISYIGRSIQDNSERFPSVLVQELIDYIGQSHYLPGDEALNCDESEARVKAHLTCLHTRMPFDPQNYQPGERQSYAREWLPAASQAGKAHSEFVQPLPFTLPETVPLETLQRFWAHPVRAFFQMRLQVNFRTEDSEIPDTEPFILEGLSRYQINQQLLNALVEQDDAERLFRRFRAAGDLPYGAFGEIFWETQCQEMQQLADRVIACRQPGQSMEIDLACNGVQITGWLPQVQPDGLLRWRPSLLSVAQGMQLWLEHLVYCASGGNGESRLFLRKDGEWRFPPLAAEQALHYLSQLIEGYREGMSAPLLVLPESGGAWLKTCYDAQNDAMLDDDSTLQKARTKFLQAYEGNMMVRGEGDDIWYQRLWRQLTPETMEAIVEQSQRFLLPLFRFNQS
Exodeoxyribonuclease V, sequence (P08394 whole entry): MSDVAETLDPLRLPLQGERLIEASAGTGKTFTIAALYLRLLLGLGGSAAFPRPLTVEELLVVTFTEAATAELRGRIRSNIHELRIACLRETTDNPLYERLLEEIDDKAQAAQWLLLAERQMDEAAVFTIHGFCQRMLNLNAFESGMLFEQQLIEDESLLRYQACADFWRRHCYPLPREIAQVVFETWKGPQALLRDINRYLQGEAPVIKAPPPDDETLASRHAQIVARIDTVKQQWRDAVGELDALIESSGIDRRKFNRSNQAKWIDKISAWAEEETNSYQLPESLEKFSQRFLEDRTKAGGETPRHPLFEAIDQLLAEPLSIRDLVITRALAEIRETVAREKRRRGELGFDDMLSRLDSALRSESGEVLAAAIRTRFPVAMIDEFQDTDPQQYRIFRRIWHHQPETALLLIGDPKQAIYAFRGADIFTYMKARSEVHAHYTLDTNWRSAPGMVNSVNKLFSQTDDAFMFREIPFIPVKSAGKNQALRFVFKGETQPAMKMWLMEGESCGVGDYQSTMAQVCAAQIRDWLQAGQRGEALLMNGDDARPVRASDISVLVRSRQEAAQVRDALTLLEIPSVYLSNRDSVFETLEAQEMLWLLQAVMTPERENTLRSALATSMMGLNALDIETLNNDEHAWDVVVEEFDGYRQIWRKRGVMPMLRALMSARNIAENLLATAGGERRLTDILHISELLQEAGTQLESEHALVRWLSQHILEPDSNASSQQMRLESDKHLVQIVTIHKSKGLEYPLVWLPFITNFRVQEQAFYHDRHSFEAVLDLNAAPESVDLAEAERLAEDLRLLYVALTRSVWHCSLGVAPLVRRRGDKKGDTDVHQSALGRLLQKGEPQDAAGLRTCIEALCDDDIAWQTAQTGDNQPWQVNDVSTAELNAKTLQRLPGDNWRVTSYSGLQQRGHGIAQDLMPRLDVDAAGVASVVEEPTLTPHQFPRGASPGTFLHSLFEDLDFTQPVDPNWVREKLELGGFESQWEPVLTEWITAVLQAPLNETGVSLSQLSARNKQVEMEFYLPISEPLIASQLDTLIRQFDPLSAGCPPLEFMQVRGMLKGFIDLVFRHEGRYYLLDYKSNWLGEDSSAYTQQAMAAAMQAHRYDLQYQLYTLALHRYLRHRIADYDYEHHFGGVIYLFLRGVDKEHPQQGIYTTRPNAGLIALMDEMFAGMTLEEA
Tumor necrosis factor, sequence (P01375 whole entry, the tested form may be a part): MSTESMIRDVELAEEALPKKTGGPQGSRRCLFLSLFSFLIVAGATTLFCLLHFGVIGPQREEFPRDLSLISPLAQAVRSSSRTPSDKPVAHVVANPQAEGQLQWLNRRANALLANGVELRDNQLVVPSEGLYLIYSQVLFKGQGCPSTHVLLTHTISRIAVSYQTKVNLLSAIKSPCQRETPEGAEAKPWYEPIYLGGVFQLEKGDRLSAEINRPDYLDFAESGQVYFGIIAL

CN1C(=O)NC(=O)/C(=C/c2ccc([N+](=O)[O-])o2)C1=O
active: IC50 [1] 43.8 µM | AC50 [4] 15.4 µM
inactive: IC50 [2] > 100 µM | IC50 [3] > 100 µM

Cc1ccc(NC(=O)Cn2cnc3ccccc32)cc1C
inactive: IC50 (Exodeoxyribonuclease V) > 119 µM | IC50 [5] > 119 µM

O=C(CSc1nc(O)c2c(-c3ccccc3)csc2n1)NC1CCCCC1
inactive: IC50 (Tumor necrosis factor) > 20 µM | IC50 [6] > 20 µM | IC50 (HEK293 [7]) > 20 µM

Cc1ccc(C(C)C)c(OCc2ccc(C(=O)N/N=C/c3cccc(O)c3O)cc2)c1
inactive: EC50 (HEK293 [10]) > 20 µM | IC50 (HEK293 [20]) > 20 µM | EC50 [21] > 20 µM | IC50 (HEK293 [22]) > 20 µM | IC50 (Exodeoxyribonuclease V) > 119 µM | IC50 [5] > 119 µM
> 350 µM (not active): EC50 (cells [24])
> 150 µM (not active): EC50 (Streptokinase A)
active: EC50 [8] 3.17 µM | EC50 [9] 0.54 µM | EC50 [11] 1.87 µM | EC50 (BJ [12]) 9.95 µM | IC50 (HEK293 [13]) 1.16 µM | EC50 (cells [14]) 6.18 µM | EC50 [15] 0.979 µM | EC50 [16] 1.24 µM | EC50 [17] 0.976 µM | EC50 (BJ [18]) 2.58 µM | EC50 [19] 0.928 µM | IC50 [23] 1.67 µM | EC50 (BJ [25]) 7.23 µM | EC50 [26] 4.88 µM | EC50 (Streptococcus) 5.32 µM | AC50 [27] 4.01 µM | EC50 (BJ [28]) 0.533 µM | AC50 (INS1) 0.832 µM

O=c1c(O[C@@H]2O[C@H](CO)[C@@H](O)[C@H](O)[C@H]2O)c(-c2ccc(O)c(O)c2)oc2cc(O)cc(O)c12 [ISOQUERCETIN]
active: IC50 [29] 5.25 µM | IC50 [1] 1.66 µM | IC50 [2] 14 µM | IC50 [3] 8.96 µM
